# Measurements from patent publication US20150064697A1 (priority 2012, published 2015).
# Assays:
# SCC-VII cells [1] = test: Cell viability assay (methylene blue), cytotoxicity of 5-aza-dC; type: cell-based, mouse; settings: 5 days treatment
# CT26 cells [2] = test: as above; type: cell-based, mouse; settings: 5 days treatment
# LLC cells [3] = test: as above; type: cell-based, mouse; settings: 5 days treatment
# [4] = biological target: DNA methyltransferase I (DNMT1) (Mus musculus, UniProt P13864); test: Western blot of DNMT1 protein level; type: cell-based; settings: both p53-WT and p53-null cells, 48 hours
# [5] = tested on: primary mouse hepatocytes (quiescent); test: Viability of quiescent primary hepatocytes (methylene blue); type: cell-based; settings: p53-wt and null hepatocytes, 5 days
# SCC-VII cells [6] = test: Dot-blot hybridization for GSAT RNA; settings: 10 μM 48 hours
# CT26 cells [7] = test: Dot-blot hybridization for GSAT RNA; settings: CT26, 10 μM 48 hours
# LLC cells [8] = test: Dot-blot hybridization for GSAT RNA; settings: 10 μM 48 hours
# SCC-VII cells [9] = test: RT-PCR of IFNβ1, IRF7 and CXCL10 mRNA; settings: 10 μM 48 hours
# LLC cells [10] = test: RT-PCR of IFNβ1, IRF7 and CXCL10 mRNA; settings: 10 μM 48 hours
# [11] = tested on: caspases 3 and 7 in ifnar−/− MEFs; test: Caspase-3,7 activity assay (Ac-DEVD-AMC); settings: 48 hours
# Sequence of DNA methyltransferase I (DNMT1) (P13864 whole entry): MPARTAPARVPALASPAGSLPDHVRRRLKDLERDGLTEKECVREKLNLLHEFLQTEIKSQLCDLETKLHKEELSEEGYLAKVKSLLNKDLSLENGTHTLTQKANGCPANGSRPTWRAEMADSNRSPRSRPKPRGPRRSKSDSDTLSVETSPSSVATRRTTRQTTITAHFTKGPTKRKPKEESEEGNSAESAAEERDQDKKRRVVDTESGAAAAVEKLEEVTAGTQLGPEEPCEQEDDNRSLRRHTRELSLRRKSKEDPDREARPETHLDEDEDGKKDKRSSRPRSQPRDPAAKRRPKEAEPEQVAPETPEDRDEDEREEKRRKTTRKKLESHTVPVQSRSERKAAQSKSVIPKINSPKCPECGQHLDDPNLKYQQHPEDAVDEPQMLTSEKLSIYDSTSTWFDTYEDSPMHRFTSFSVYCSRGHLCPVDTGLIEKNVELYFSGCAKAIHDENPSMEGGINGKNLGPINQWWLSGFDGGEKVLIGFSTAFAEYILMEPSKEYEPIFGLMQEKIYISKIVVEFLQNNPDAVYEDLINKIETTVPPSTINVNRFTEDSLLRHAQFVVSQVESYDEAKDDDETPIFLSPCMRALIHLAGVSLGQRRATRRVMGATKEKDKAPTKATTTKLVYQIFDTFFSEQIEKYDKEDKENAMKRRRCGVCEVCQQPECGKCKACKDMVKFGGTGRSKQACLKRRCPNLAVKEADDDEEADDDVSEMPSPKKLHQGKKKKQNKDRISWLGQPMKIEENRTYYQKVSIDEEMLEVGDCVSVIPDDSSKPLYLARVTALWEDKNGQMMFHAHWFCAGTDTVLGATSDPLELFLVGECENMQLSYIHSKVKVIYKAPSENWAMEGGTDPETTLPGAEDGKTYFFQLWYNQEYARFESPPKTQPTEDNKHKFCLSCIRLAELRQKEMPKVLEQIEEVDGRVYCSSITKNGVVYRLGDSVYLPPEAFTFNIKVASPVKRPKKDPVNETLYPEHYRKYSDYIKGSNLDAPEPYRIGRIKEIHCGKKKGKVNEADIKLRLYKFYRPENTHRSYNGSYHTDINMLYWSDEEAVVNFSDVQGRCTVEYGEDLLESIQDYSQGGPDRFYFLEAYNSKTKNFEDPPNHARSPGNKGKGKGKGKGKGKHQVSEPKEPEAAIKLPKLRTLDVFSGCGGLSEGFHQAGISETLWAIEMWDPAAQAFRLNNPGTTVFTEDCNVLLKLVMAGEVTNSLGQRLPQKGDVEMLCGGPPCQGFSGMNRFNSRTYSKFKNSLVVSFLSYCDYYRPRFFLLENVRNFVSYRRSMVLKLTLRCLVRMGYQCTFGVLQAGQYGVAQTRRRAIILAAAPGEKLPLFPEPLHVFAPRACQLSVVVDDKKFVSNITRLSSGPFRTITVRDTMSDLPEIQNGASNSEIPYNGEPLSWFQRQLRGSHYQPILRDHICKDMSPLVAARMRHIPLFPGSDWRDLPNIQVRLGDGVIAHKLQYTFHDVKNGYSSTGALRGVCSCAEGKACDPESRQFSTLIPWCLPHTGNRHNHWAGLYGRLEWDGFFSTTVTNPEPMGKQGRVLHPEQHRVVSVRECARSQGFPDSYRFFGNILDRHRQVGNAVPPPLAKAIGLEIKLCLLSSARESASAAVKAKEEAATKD
smiles,measurement,setting,value
"Nc1ncn([C@H]2C[C@H](O)[C@@H](CO)O2)c(=O)n1 [5-aza-dC, 5-aza-2′-deoxycytidine]",LD50,SCC-VII cells [1],0.125 µM
same,LD50,CT26 cells [2],2 µM
same,LD50,LLC cells [3],14 µM
same,free DNMT1 protein after treatment,[4],complete depletion
same,sensitivity of quiescent cells to cultivation with 5-aza-dC,[5],resistant
same,expression of GSAT RNA upon treatment,SCC-VII cells [6],strong
same,expression of GSAT RNA upon treatment,CT26 cells [7],intermediate
same,expression of GSAT RNA upon treatment,LLC cells [8],undetectable
same,"mRNAs encoding IFNβ1, IRF7 and CXCL10",SCC-VII cells [9],strong upregulation
same,"mRNAs encoding IFNβ1, IRF7 and CXCL10",LLC cells [10],none of these IFN response-associated transcripts was detected
same,caspase activation,[11],No signs of caspase activation
